Assay results published in the NIST ThermoML archive (doi:10.1016/j.fluid.2007.06.012).
± gives the expanded uncertainty stated by the source.

Conditions: Liquid, Closed cell (Static) method

SMILES: FC(F)(F)C(F)(F)F [hexafluoroethane]
- vapor or sublimation pressure (243.33 K): 769 ± 3 kPa
- vapor or sublimation pressure (245.32 K): 816 ± 3 kPa
- vapor or sublimation pressure (249.31 K): 928 ± 3 kPa
- vapor or sublimation pressure (253.29 K): 1048 ± 3 kPa
- vapor or sublimation pressure (257.31 K): 1183 ± 4 kPa
- vapor or sublimation pressure (261.29 K): 1328 ± 4 kPa
- vapor or sublimation pressure (265.28 K): 1489 ± 4 kPa
- vapor or sublimation pressure (269.27 K): 1659 ± 4 kPa
- vapor or sublimation pressure (273.27 K): 1847 ± 4 kPa
- vapor or sublimation pressure (277.24 K): 2050 ± 4 kPa
- vapor or sublimation pressure (281.23 K): 2270 ± 5 kPa
- vapor or sublimation pressure (283.23 K): 2387 ± 5 kPa
- vapor or sublimation pressure (285.23 K): 2509 ± 5 kPa
- vapor or sublimation pressure (287.22 K): 2636 ± 5 kPa
- vapor or sublimation pressure (289.22 K): 2769 ± 5 kPa
- vapor or sublimation pressure (290.23 K): 2839 ± 5 kPa
- vapor or sublimation pressure (290.72 K): 2873 ± 5 kPa
- vapor or sublimation pressure (291.22 K): 2909 ± 5 kPa
- vapor or sublimation pressure (291.72 K): 2946 ± 5 kPa
- vapor or sublimation pressure (292.22 K): 2982 ± 5 kPa
